The values below are quoted from earlier work in US20080306069A1, “Pyrazole Derivatives for the Inhibition of CDK'S and GSK'S” (ASTEX THERAPEUTICS LIMITED, priority 2005, published 2008).

In this series the test system is malignant cells from B-cell chronic lymphocytic leukemia (B-CLL). To be noted: in vitro.

Structures are written as SMILES.

On to `CC[C@H](CO)Nc1nc(NCc2ccccc2)c2ncn(C(C)C)c2n1` [CYC 202], for which the “apoptosis of malignant B-CLL cells” value is “induce in vitro apoptosis”.

As for `CN1CC[C@H](c2c(O)cc(O)c3c(=O)cc(-c4ccccc4Cl)oc23)[C@H](O)C1` [Flavopiridol, flavopiridol], the “apoptosis of malignant B-CLL cells” value is on record as “induce in vitro apoptosis”.
